Measurements: patent US7468391B2, “Methods for treating retinoid responsive disorders using selective inhibitors of CYP26A and CYP26B” (Allergan, Inc., priority 2003, dated 2008)

Columns and labels:
CYP26A (P450RAI-1) = biological target: T1, CYP26A (P450RAI-1) (Homo sapiens, UniProt O43174); assay: Cell-based inhibition of RA metabolism in CYP26A stably transfected HeLa cells; conditions: for IC50: Table 3, stably transfected HeLa cells, [3H]-RA, 3 hours at 37° C., read-out: CYP26A Intact cells IC50
T1 construct: expressed in transfected cells; host or cells: HeLa
T1 sequence (O43174 1-497): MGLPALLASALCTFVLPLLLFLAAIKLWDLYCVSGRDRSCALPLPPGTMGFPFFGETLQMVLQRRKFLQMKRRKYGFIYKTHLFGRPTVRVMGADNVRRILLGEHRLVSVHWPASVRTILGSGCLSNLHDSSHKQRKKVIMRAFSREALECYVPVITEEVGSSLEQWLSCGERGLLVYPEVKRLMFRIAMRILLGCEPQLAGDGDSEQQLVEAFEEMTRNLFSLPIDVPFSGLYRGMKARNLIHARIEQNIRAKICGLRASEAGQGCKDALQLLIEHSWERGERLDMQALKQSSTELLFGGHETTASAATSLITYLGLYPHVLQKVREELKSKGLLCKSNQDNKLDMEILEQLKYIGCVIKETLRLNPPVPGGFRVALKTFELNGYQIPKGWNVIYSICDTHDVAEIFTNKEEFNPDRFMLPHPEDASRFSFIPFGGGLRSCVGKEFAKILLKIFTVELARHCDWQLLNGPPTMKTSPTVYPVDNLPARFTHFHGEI
Procedure, shortened: (§1)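 Stably transfected HeLa cells (5×10^5/well) in MEM with 10% FBS and 0.05 μCi [3H]-RA, compounds at 10, 1 or 0.1 μM final, 3 h at 37° C. Retinoids extracted by modified Bligh-Dyer (methylene chloride); aqueous radioactivity counted; ID50 for 50% inhibition of RA metabolism derived from log-transformed data.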

CYP26B (P450RAI-2) = biological target: T2, CYP26B (P450RAI-2) (Homo sapiens, UniProt Q9NR63); assay: Cell-based inhibition of RA metabolism in CYP26B stably transfected HeLa cells; conditions: for IC50: Table 3, stably transfected HeLa cells, [3H]-RA, 3 hours at 37° C., read-out: CYP26B Intact cells IC50
T2 construct: expressed in transfected cells; host or cells: HeLa
T2 sequence (Q9NR63 1-512): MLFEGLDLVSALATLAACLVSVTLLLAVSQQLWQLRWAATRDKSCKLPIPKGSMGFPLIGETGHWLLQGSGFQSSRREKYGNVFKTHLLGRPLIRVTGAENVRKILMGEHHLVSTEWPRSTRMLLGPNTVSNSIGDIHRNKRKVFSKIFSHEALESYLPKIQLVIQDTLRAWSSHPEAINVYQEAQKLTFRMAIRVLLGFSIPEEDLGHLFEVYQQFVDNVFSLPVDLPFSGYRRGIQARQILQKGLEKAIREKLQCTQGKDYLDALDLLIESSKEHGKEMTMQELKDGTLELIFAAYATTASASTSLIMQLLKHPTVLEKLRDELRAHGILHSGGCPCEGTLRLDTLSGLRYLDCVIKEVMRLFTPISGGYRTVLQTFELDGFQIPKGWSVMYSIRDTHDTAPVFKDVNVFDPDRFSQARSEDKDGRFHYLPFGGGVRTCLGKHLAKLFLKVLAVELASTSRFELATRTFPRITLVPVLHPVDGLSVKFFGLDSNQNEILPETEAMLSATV
Procedure, shortened: as §1

RAR β = biological target: T3, RAR β (Homo sapiens, UniProt P10826); assay: RAR β EC50/(efficacy); assay type: cell-based; conditions: Table 3
T3 sequence (P10826 1-455): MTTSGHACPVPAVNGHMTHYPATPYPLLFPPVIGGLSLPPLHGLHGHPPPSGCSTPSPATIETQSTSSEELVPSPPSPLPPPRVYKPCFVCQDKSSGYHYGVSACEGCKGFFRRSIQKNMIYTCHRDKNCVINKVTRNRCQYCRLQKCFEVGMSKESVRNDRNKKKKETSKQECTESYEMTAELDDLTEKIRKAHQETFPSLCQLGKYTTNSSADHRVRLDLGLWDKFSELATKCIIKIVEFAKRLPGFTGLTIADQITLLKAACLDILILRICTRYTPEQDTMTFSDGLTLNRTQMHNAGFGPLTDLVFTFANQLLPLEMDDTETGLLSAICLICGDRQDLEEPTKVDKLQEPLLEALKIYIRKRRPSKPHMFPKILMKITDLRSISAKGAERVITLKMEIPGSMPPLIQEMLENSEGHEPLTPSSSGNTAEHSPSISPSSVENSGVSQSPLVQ

RAR γ = biological target: T4, RAR γ (Homo sapiens, UniProt P13631); assay: RAR γ Kd; assay type: binding; conditions: Table 3
T4 sequence (P13631 1-454): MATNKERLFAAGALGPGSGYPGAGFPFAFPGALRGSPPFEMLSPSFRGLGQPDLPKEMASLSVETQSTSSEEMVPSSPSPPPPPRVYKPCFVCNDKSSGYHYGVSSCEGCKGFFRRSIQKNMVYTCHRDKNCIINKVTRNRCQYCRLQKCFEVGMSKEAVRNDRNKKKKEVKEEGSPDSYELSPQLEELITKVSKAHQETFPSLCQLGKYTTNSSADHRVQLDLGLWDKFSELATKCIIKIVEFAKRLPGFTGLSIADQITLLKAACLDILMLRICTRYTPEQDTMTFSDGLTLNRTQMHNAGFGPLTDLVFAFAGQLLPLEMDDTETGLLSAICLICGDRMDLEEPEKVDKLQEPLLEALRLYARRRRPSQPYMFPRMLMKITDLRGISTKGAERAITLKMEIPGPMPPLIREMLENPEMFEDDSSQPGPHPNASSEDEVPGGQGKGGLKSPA

SMILES | IC50 (CYP26A (P450RAI-1)) | selectivity for CYP26A relative to CYP26B (CYP26A (P450RAI-1); ratio of ID50 values) | IC50 (CYP26B (P450RAI-2)) | RAR β (EFFICACY) (RAR β) | Kd (RAR γ) | selectivity for CYP26B relative to CYP26A (CYP26B (P450RAI-2); ratio of ID50 values)
CN(C1CC1)C1CCC(C)(C)c2cc(C#Cc3ccc(C(C)(C)C(=O)O)cc3)ccc21 (stereo not shown) [AGN 198790] | 0.6 µM | at least 10 fold | > 10 µM | < 5 | > 10 µM | 
CN(Cc1cccc(C#Cc2ccc(/C=C/C(=O)O)cc2)c1)C1CC1 [AGN 199713] | > 10 µM |  | 0.6 µM | 25 | > 10 µM | at least 10 fold
